Measurements published in patent US20060148059A1, “Salt tolerant l-myo-inositol 1-phosphate synthase and the process of obtaining the same” (priority 2002, published 2006).
Like-named read-outs stand apart in the source and are kept apart here.

How the values were obtained:
[1] = tested on: Oryza sativa L-myo-inositol 1-phosphate synthase (RINO), native; details: data from RayChaudhury et al. (1997); cited from earlier work
[2] = not told
Protocol: FIG. 5: Gel filtration pattern on Superose-12 of RINO1 and PINO1 proteins in absence and presence of 400 mM NaCl. (A) RINO1 without NaCl; (B) RINO1 with NaCl; (C) PINO1 without NaCl; (D) PINO1 with NaCl. Insets depict SDS-PAGE and immuno dot blots of indicated fractions.

[3] = Tryptophan fluorescence in increasing NaCl concentrations; assay type: physicochemical; details: recombinant preparations
Protocol: FIG. 4: Tryptophan fluorescence of purified RINO1 (A) and PINO1 (B) proteins in increasing NaCl concentrations; tracing 1,2,3 & 4 correspond to 0, 100 mM, […] and 400 mM NaCl in the system.
Tryptophan Fluorescence spectra of the recombinant preparations of the inositol synthase(s) from Oryza sativa (RINO1) and Porteresia coarctata (PINO1) are shown in Panel A and B respectively in FIG. 4. […] The emission maxima in both the cases remain close to 336 nm.

[4] = pH and temperature optimum of enzyme activity; assay type: biochemical
Protocol: The purified bacterially expressed RINO1 and PINO1 proteins were characterized for their biochemical properties (Table-1). […] For both the cases optimum enzyme activity was at 37° C. whereas optimum pH for Porteresia recombinant synthase (PINO1) was 8.0 and the same for Oryza recombinant synthase (RINO1) was 7.5.

[5] = Inositol synthase activity in presence of increasing NaCl concentration; assay type: biochemical; details: NaCl in vitro
Text: With respect to salt-sensitivity, RINO1 and PINO1 proteins differ a great deal.
FIG. 3: Inositol synthase activity in presence of increasing NaCl concentration for purified native (A) and recombinant (B) enzymes.

[6] = enzyme activity; data from RayChaudhury et al. (1997); cited from earlier work

Row | Temperature Optimum [4] | pH optimum [4] | Compound | Km [1] | Vmax [1] | Gel-permeation elution pattern on addition of salt [2] | salt-sensitivity of inositol synthase activity [5] | also measured
1 | – | – | NC(=O)c1ccc[n+]([C@@H]2O[C@H](COP(=O)([O-])OP(=O)(O)OC[C@H]3O[C@@H](n4cnc5c(N)ncnc54)[C@H](O)[C@@H]3O)[C@@H](O)[C@H]2O)c1 [NAD] | 140 µM | 0.09 μmol^−m | – | – | –
2 | 37 °C | 8.0 | L-myo-inositol 1-phosphate synthase [PINO Recombinant] | – | – | elutes at the same place | – | Tryptophan fluorescence intensity in presence of added salt ([3]; listed as PINO1): rather insensitive; Temperature Optimum ([4]; listed as PINO1): 37 °C; pH optimum ([4]; listed as PINO1): 8.0
3 | – | – | O=P(O)(O)OC[C@H]1OC(O)[C@H](O)[C@@H](O)[C@@H]1O (stereo partly shown) [G6P, Glucose 6 phosphate] | 1970 µM | 0.07 μmol^−m | – | – | –
4 | – | – | L-myo-inositol 1-phosphate synthase [RINO Native] | – | – | – | sensitive to NaCl | Temperature Optimum [6]: 35 °C; pH optimum [6]: 8.2
5 | 35 °C | 7.5 | L-myo-inositol 1-phosphate synthase [PINO Native] | – | – | – | – | –
6 | 37 °C | 7.5 | L-myo-inositol 1-phosphate synthase [RINO Recombinant] | – | – | substantial reduction in the original peak and concurrent appearance of a high molecular weight fraction | sensitive to NaCl | Tryptophan fluorescence intensity in presence of added salt ([3]; listed as RINO1): quenched significantly; Temperature Optimum ([4]; listed as RINO1): 37 °C; pH optimum ([4]; listed as RINO1): 7.5
